Source: patent publication EP4603105A1, “PHARMACEUTICAL COMPOSITION CONTAINING CYCLIC COMPOUND HAVING SELECTIVE KRAS INHIBITORY EFFECT AGAINST HRAS AND NRAS” (CHUGAI SEIYAKU KABUSHIKI KAISHA, priority 2022, dated 2024)
Like-named read-outs stand apart in the source and are kept apart here.

Experiments:
[1] = target: GDP-bound NRAS wild-type protein (Homo sapiens, UniProt P01111); assay: Binding to NRAS by surface plasmon resonance (SPR), KD and KD ratio to KRAS
Outline: (§1)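 Single-cycle kinetics on GDP-loaded biotin-Avi RAS captured to ~100–300 RU; 75 s ascending injections, 100 µL/min, 30°C. HBS pH 7.4 + 10 mM MgCl2/10 µM GDP/4% DMSO. 1:1 fit, KD.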

HRAS wild-type protein = HRAS wild-type protein (Homo sapiens, UniProt P01112); assay: Binding to HRAS by surface plasmon resonance (SPR), KD and KD ratio to KRAS
Chain of HRAS wild-type protein (P01112 whole entry): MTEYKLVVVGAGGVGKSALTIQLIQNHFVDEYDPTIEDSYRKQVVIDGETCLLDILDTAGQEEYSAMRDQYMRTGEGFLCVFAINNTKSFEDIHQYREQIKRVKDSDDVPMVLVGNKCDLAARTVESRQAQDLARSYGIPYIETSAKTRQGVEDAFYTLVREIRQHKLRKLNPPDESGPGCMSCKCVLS
Outline: as §1

[2] = tested on: human lung cancer strain NCI-H441; assay: NCI-H441 cell proliferation inhibitory activity (CellTiter-Glo, 4 days); type: cell-based; settings: read-out: NCl-H441 IC50
Outline: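 Proliferation was scored by […] measured after the reagent was added to cultures kept at 37°C in 5% carbon dioxide.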

[3] = target: GDP-bound KRAS wild-type protein (Homo sapiens, UniProt P01116); assay: Binding to KRAS by surface plasmon resonance (SPR), dissociation constant KD
Chain of GDP-bound KRAS wild-type protein (P01116 1-188 isoform P01116-2): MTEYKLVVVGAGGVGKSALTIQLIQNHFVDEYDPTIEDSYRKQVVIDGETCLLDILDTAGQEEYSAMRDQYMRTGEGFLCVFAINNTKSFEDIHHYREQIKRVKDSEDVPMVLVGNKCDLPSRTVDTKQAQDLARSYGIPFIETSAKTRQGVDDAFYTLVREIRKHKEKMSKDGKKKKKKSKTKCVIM
Outline: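 GDP-loaded biotinylated Avi-tag RAS proteins (E. coli-expressed) captured on a Biotin CAPture chip at ~100–300 RU; single-cycle kinetics at 30°C, 100 µL/min, 75 s injections of rising compound concentrations. HBS pH 7.4 running buffer with 1 mM DTT, 10 mM MgCl2, 10 µM GDP, 4% DMSO. KD from 1:1 binding fit.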

[4] = ratio of KD with respect to GDP-bound NRAS wild-type protein to KD with respect to KRAS
[5] = ratio of KD with respect to HRAS wild-type protein to KD with respect to KRAS
[6] = 50% proliferation inhibitory concentration, four days
[7] = Single Cycle Kinetics, 1:1 binding model
[8] = ratio of KD for GDP-bound NRAS wild-type protein to KD for KRAS
[9] = ratio of KD for HRAS wild-type protein to KD for KRAS

Chain of GDP-bound NRAS wild-type protein (P01111 whole entry): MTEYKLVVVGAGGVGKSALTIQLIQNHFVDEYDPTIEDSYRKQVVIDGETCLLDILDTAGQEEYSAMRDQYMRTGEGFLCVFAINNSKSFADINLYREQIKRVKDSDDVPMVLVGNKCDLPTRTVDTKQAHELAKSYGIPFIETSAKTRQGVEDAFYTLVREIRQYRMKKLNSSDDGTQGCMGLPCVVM

## CCO[C@@H]1C[C@H]2C(=O)NC3(CCC3)C(=O)N(C)[C@@H](C3CCCC3)C(=O)N(C)[C@H](C(=O)N(C)C)CC(=O)N(C)[C@@H](CC(C)C)C(=O)N[C@@H]([C@@H](C)CC)C(=O)N(C)CC(=O)N(C)[C@H]3C/C=C\CCN(C3=O)[C@@H](Cc3ccc(F)cc3C)C(=O)N(C)CC(=O)N[C@@H](CCc3ccc(Cl)c(Cl)c3)C(=O)N2C1 [PP1480]
[1]; [4]
  NRAS /KRAS: A (a compound having 10 or more and less than 20 is denoted as A)
HRAS wild-type protein; [5]
  HRAS /KRAS: B (a compound having 3 or more and less than 10 is denoted as B)
[2]; [6]
  IC50: 85.8 nM
[3]; [7]
  Kd: 0.92 nM

## CCO[C@@H]1C[C@H]2C(=O)NC3(CC(C)(C)C3)C(=O)N(C)[C@@H](C(CC)CC)C(=O)N(C)[C@H](C(=O)N(C)C)CC(=O)N(C)[C@@H](CC3CC3)C(=O)N[C@@H]([C@@H](C)CC)C(=O)N(C)CC(=O)N(C)[C@H]3C/C=C\CCN(C3=O)[C@@H](CC3CCC(F)(F)CC3)C(=O)N(C)CC(=O)N[C@@H](CCc3ccc(C(F)(F)F)c(OC)c3)C(=O)N2C1 [PP2480]
[1]; [8]
  NRAS /KRAS: A (a compound having 10 or more and less than 20 is denoted as A)
HRAS wild-type protein; [9]
  HRAS /KRAS: A (a compound having 10 or more and less than 20 is denoted as A)
[2]; NCI-H441 cells, 4 days
  IC50: 30.5 nM
[3]; 1:1 binding model
  Kd: 0.84 nM

## CCC(CC)[C@H]1C(=O)N(C)[C@H](C(=O)N(C)C)CC(=O)N(C)[C@@H](CC2CC2)C(=O)N[C@@H]([C@@H](C)CC)C(=O)N(C)CC(=O)N(C)[C@H]2C/C=C\CCN(C2=O)[C@@H](CC2CCC(F)(F)CC2)C(=O)N(C)CC(=O)N[C@@H](CCc2ccc(C(F)(F)F)c(OC)c2)C(=O)N2C[C@@H](C)C[C@H]2C(=O)NC2(CC(C)(C)C2)C(=O)N1C [PP2494]
[1]; [8]
  NRAS /KRAS: A (a compound having 10 or more and less than 20 is denoted as A)
HRAS wild-type protein; [9]
  HRAS /KRAS: A (a compound having 10 or more and less than 20 is denoted as A)
[2]; NCI-H441 cells, 4 days
  IC50: 39.6 nM
[3]; 1:1 binding model
  Kd: 1.8 nM

## CCC[C@H]1C(=O)N[C@@H]([C@@H](C)CC)C(=O)N(C)CC(=O)N(C)[C@H]2C/C=C\CCN(C2=O)[C@@H](Cc2ccc(C(F)(F)F)cc2)C(=O)N(C)CC(=O)N[C@@H](CCc2cc(F)c(C(F)(F)F)c(F)c2)C(=O)N2CC3(CC3)C[C@H]2C(=O)NC2(CCC2)C(=O)N(C)[C@@H](C(CC)CC)C(=O)N(C)[C@H](C(=O)N(C)C)CC(=O)N1C [PP3402]
[1]; [8]
  NRAS /KRAS: AA (a compound having 20 or more is denoted as AA)
HRAS wild-type protein; [9]
  HRAS /KRAS: B (a compound having 3 or more and less than 10 is denoted as B)
[2]; NCI-H441 cells, 4 days
  IC50: 10.1 nM
[3]; Single Cycle Kinetics
  Kd: 0.31 nM

## CCCO[C@@H]1C[C@H]2C(=O)NC3(CC(C)(C)C3)C(=O)N(C)[C@@H](C3CCCC3)C(=O)N(C)[C@H](C(=O)N(C)CC)CC(=O)N(C)[C@@H](COCC)C(=O)N[C@@H]([C@@H](C)CC)C(=O)N(C3CC3)CC(=O)N(C)[C@H]3C/C=C\CCN(C3=O)[C@@H](Cc3ccc(C)cc3)C(=O)N(C)CC(=O)N[C@@H](CCc3ccc(C(F)(F)F)c(OC)c3)C(=O)N2C1 [PP3466]
[1]; [8]
  NRAS /KRAS: A (a compound having 10 or more and less than 20 is denoted as A)
HRAS wild-type protein; [9]
  HRAS /KRAS: B (a compound having 3 or more and less than 10 is denoted as B)
[2]; NCI-H441 cells, 4 days
  IC50: 39.8 nM
[3]; Single Cycle Kinetics
  Kd: 0.97 nM

## CC[C@H](C)[C@@H]1NC(=O)[C@H](C)N(C)C(=O)C[C@@H](C(=O)N(C)C)N(C)C(=O)[C@H](C2CCCC2)N(C)C(=O)C2(CCC2)NC(=O)[C@@H]2CCCN2C(=O)[C@H](CCc2cc(F)c(C(F)(F)F)c(F)c2)NC(=O)CN(C)C(=O)[C@H](Cc2ccc(C(F)(F)F)cc2)N2CC/C=C\C[C@@H](C2=O)N(C)C(=O)CN(C)C1=O [PP1271]
[1]; [4]
  NRAS /KRAS: AA (a compound having 20 or more is denoted as AA)
HRAS wild-type protein; [5]
  HRAS /KRAS: A (a compound having 10 or more and less than 20 is denoted as A)
[2]; [6]
  IC50: 90.7 nM
[3]; [7]
  Kd: 0.054 nM

## CCC[C@H]1C(=O)N[C@@H](C2CCCC2)C(=O)N(C)CC(=O)N(C)[C@H]2C/C=C\CCN(C2=O)[C@@H](Cc2ccc(C(F)F)cc2)C(=O)N(C)CC(=O)N[C@@H](CCc2cc(F)c(C(F)(F)F)c(OC)c2)C(=O)N2C[C@H](OC(C)C)C[C@H]2C(=O)N(C)C2(CCC2)C(=O)N(C)[C@@H](C(CC)CC)C(=O)N(C)[C@H](C(=O)N(C)C)CC(=O)N1C [PP3499]
[1]; [8]
  NRAS /KRAS: A (a compound having 10 or more and less than 20 is denoted as A)
HRAS wild-type protein; [9]
  HRAS /KRAS: B (a compound having 3 or more and less than 10 is denoted as B)
[2]; NCI-H441 cells, 4 days
  IC50: 6.2 nM
[3]; Single Cycle Kinetics
  Kd: 0.083 nM

## CCCO[C@@H]1C[C@H]2C(=O)NC3(CC(C)(C)C3)C(=O)N(C)[C@@H](C3CCCC3)C(=O)N(C)[C@H](C(=O)N(C)CC)CC(=O)N(C)[C@@H](COCC)C(=O)N[C@@H]([C@@H](C)CC)C(=O)N(C3CC3)CC(=O)N(C)[C@H]3C/C=C\CCN(C3=O)[C@@H](Cc3ccc(C(F)(F)F)cc3)C(=O)N(C)CC(=O)N[C@@H](CCc3cc(F)c(C(F)(F)F)c(F)c3)C(=O)N2C1 [PP3470]
[1]; [8]
  NRAS /KRAS: A (a compound having 10 or more and less than 20 is denoted as A)
HRAS wild-type protein; [9]
  HRAS /KRAS: A (a compound having 10 or more and less than 20 is denoted as A)
[2]; NCI-H441 cells, 4 days
  IC50: 12.2 nM
[3]; Single Cycle Kinetics
  Kd: 0.61 nM

## CCC[C@H]1C(=O)N[C@@H]([C@@H](C)CC)C(=O)N(C)CC(=O)N(C)[C@H]2C/C=C\CCN(C2=O)[C@@H](Cc2ccc(C)cc2)C(=O)N(C)CC(=O)N[C@@H](CCc2ccc(C(F)(F)F)c(OC)c2)C(=O)N2CC3(CC3)C[C@H]2C(=O)N(C)C2(CCC2)C(=O)N(C)[C@@H](CC(C)(C)C)C(=O)N(C)[C@H](C(=O)N(C)C)CC(=O)N1C [PP3296]
[1]; [8]
  NRAS /KRAS: B (a compound having 3 or more and less than 10 is denoted as B)
HRAS wild-type protein; [9]
  HRAS /KRAS: C (A compound having a KD ratio of 0.1 or more and less than 3 is denoted as C)
[2]; NCI-H441 cells, 4 days
  IC50: 1.4 nM
[3]; Single Cycle Kinetics
  Kd: 0.079 nM

## CCO[C@@H]1C[C@H]2C(=O)NC3(CC(C)(C)C3)C(=O)N(C)[C@@H](C3CCCC3)C(=O)N(C)[C@H](C(=O)N(C)CC)CC(=O)N(C)[C@@H]([C@H](C)OC)C(=O)N[C@@H]([C@@H](C)CC)C(=O)N3CCC[C@H]3C(=O)N(C)[C@H]3C/C=C\CCN(C3=O)[C@@H](Cc3ccc(C(F)(F)F)cc3)C(=O)N(C)CC(=O)N[C@@H](CCc3cc(F)c(C(F)(F)F)c(F)c3)C(=O)N2C1 [PP3223]
[1]; [8]
  NRAS /KRAS: A (a compound having 10 or more and less than 20 is denoted as A)
HRAS wild-type protein; [9]
  HRAS /KRAS: A (a compound having 10 or more and less than 20 is denoted as A)
[2]; NCI-H441 cells, 4 days
  IC50: 49.6 nM
[3]; Single Cycle Kinetics
  Kd: 1.1 nM

## CCO[C@@H]1C[C@H]2C(=O)NC3(CCC3)C(=O)N(C)[C@@H](C3CCCC3)C(=O)N(C)[C@H](C(=O)N(C)C)CC(=O)N(C)[C@@H](CC(C)C)C(=O)N[C@@H]([C@@H](C)CC)C(=O)N(C)CC(=O)N(C)[C@H]3C/C=C\CCN(C3=O)[C@@H](Cc3ccc(C(F)(F)F)cc3)C(=O)N(C)CC(=O)N[C@@H](CCc3ccc(C(F)(F)F)c(OC)c3)C(=O)N2C1 [PP1245]
[1]; [4]
  NRAS /KRAS: A (a compound having 10 or more and less than 20 is denoted as A)
HRAS wild-type protein; [5]
  HRAS /KRAS: B (a compound having 3 or more and less than 10 is denoted as B)
[2]; [6]
  IC50: 3.7 nM
[3]; [7]
  Kd: 0.06 nM

## CCO[C@@H]1C[C@H]2C(=O)NC3(CCC3)C(=O)N(C)[C@@H](C3CCCC3)C(=O)N(C)[C@H](C(=O)N(C)C)CC(=O)N(C)[C@@H](Cc3ccc(C#N)cc3)C(=O)N[C@@H]([C@@H](C)CC)C(=O)N(C)CC(=O)N(C)[C@H]3CCCCCN(C3=O)[C@@H](Cc3ccc(C(F)(F)F)cc3)C(=O)N(C)CC(=O)N[C@@H](CCc3cc(F)c(C(F)(F)F)c(F)c3)C(=O)N2C1 [PP1173]
[1]; [4]
  NRAS /KRAS: B (a compound having 3 or more and less than 10 is denoted as B)
HRAS wild-type protein; [5]
  HRAS /KRAS: B (a compound having 3 or more and less than 10 is denoted as B)
[2]; [6]
  IC50: 70.8 nM
[3]; [7]
  Kd: 0.18 nM

## CCCO[C@@H]1C[C@H]2C(=O)NC3(CC(C)(C)C3)C(=O)N(C)[C@@H](C3CCCC3)C(=O)N(C)[C@H](C(=O)N(C)CC)CC(=O)N(C)[C@@H](COCC)C(=O)N[C@@H]([C@@H](C)CC)C(=O)N3C[C@@H](C)C[C@H]3C(=O)N(C)[C@H]3C/C=C\CCN(C3=O)[C@@H](Cc3ccc(C)cc3)C(=O)N(C)CC(=O)N[C@@H](CCc3ccc(C(F)(F)F)c(OC)c3)C(=O)N2C1 [PP3468]
[1]; [8]
  NRAS /KRAS: B (a compound having 3 or more and less than 10 is denoted as B)
HRAS wild-type protein; [9]
  HRAS /KRAS: A (a compound having 10 or more and less than 20 is denoted as A)
[2]; NCI-H441 cells, 4 days
  IC50: 137 nM
[3]; Single Cycle Kinetics
  Kd: 3.4 nM

## CCO[C@@H]1C[C@H]2C(=O)NC3(CCC3)C(=O)N(C)[C@@H](C(CC)CC)C(=O)N(C)[C@H](C(=O)N(C)C)CC(=O)N(C)[C@@H](CC(C)C)C(=O)N[C@@H]([C@@H](C)CC)C(=O)N(C)CC(=O)N(C)[C@H]3C/C=C\CCN(C3=O)[C@@H](Cc3ccc(C(F)(F)F)cc3)C(=O)N(C)CC(=O)N[C@@H](CCc3ccc4sccc4c3)C(=O)N2C1 [PP1225]
[1]; [4]
  NRAS /KRAS: AA (a compound having 20 or more is denoted as AA)
HRAS wild-type protein; [5]
  HRAS /KRAS: A (a compound having 10 or more and less than 20 is denoted as A)
[2]; [6]
  IC50: 92.5 nM
[3]; [7]
  Kd: 1.1 nM
